Reference: PMC5431190, “Investigation of cationicity and structure of pseudin-2 analogues for enhanced bacterial selectivity and anti-inflammatory activity” (Scientific Reports, 2017)
Values after ≈ are worked out from the molar mass of the structure shown. Residues, ends and D or L forms follow the SMILES beside them.

Columns and labels:
[1] = test system: Acinetobacter baumannii CCARM 12035 (MDRAB 12035); type: cell-based; settings: multidrug-resistant strain; 1% peptone media, 16 h at 37 °C
Description: (§1) Four Gram-negative bacteria species (Escherichia coli KCTC 1682, Acinetobacter baumannii KCTC 2508, Pseudomonas aeruginosa KCTC 1637 and Salmonella typhimurium KCTC 1926) and three Gram-positive bacteria species (Staphylococcus aureus KCTC 1621, Bacillus subtilis KCTC 3028 and Staphylococcus epidermidis KCTC 1917) were procured from the Korean Collection for Type Cultures (KCTC). Multi-drug-resistant Gram-negative bacteria (Salmonella typhimurium CCARM 8003 and 8007, Escherichia coli CCARM 1229 and 1238, Pseudomonas aeruginosa CCARM 2002 and 2095 and Acinetobacter baumannii CCARM 12035 and 12036) were obtained from the Culture Collection of Antibiotic-Resistant Microbes (CCARM). To determine MICs, bacteria were cultured in Luria-Bertani (LB) medium for overnight at 37 °C. An aliquot of the culture was incubated in 1% peptone media at 37 °C until mid-log phase. 100 μl of serial 2-fold diluted peptides were treated in 96 well plates and added to 100 μl of 2 × 10^6 CFU/ml bacterial suspensions in 1% peptone media for 16 h at 37 °C.

[2] = test system: Acinetobacter baumannii CCARM 12036 (MDRAB 12036); type: cell-based; settings: multidrug-resistant strain; 1% peptone media, 16 h at 37 °C
Description: as §1

[3] = test system: Acinetobacter baumannii KCTC 2508; type: cell-based; settings: KCTC 2508, 16 h
Description: as §1

[4] = test system: Bacillus subtilis KCTC 3028; type: cell-based; settings: KCTC 3028, 16 h
Description: as §1

[5] = test system: Escherichia coli CCARM 1229 (MDREC 1229); type: cell-based; settings: multidrug-resistant strain; 1% peptone media, 16 h at 37 °C
Description: as §1

[6] = test system: Escherichia coli CCARM 1238 (MDREC 1238); type: cell-based; settings: multidrug-resistant strain; 1% peptone media, 16 h at 37 °C
Description: as §1

[7] = test system: Escherichia coli KCTC 1682; type: cell-based; settings: KCTC 1682, 16 h
Description: as §1

[8] = test system: Gram-negative bacteria (E. coli, A. baumannii, P. aeruginosa, S. typhimurium); type: cell-based; settings: 16 h
Description: as §1

[9] = test system: Gram-positive bacteria (S. aureus, B. subtilis, S. epidermidis); type: cell-based; settings: 16 h
Description: as §1

[10] = test system: Pseudomonas aeruginosa CCARM 2002 (MDRPA 2002); type: cell-based; settings: multidrug-resistant strain; 1% peptone media, 16 h at 37 °C
Description: as §1

[11] = test system: Pseudomonas aeruginosa CCARM 2095 (MDRPA 2095); type: cell-based; settings: multidrug-resistant strain; 1% peptone media, 16 h at 37 °C
Description: as §1

[12] = test system: Pseudomonas aeruginosa KCTC 1637; type: cell-based; settings: KCTC 1637, 16 h
Description: as §1

[13] = test system: Salmonella typhimurium CCARM 8003 (MDRST 8003); type: cell-based; settings: multidrug-resistant strain; 1% peptone media, 16 h at 37 °C
Description: as §1

[14] = test system: Salmonella typhimurium CCARM 8007 (MDRST 8007); type: cell-based; settings: multidrug-resistant strain; 1% peptone media, 16 h at 37 °C
Description: as §1

[15] = test system: Salmonella typhimurium KCTC 1926; type: cell-based; settings: KCTC 1926, 16 h
Description: as §1

[16] = test system: Staphylococcus aureus KCTC 1621; type: cell-based; settings: KCTC 1621, 16 h
Description: as §1

[17] = test system: Staphylococcus epidermidis KCTC 1917; type: cell-based; settings: KCTC 1917, 16 h
Description: as §1

[18] = test system: human red blood cells (hRBCs); test: Haemolytic activity; type: cell-based; settings: red cells of human, 1 h
Method: Peptide-induced lysis of human red blood cells (hRBCs) was determined as follows. Fresh hRBCs were washed 2–3 times with phosphate-buffered saline (PBS) by centrifugation for 5 min at 2500 rpm at 4 °C. Peptides in PBS were incubated with 4% (v/v) hRBCs for 1 h at 37 °C. Samples were then centrifuged for 5 min at 1000 × g. The absorbance of the supernatant at 405 nm was used as a measure of haemolysis. As a positive control, 100% haemolysis was obtained by treating hRBCs with 0.1% Triton X-100.

[19] = test system: S. aureus 3089(R) (MRSA 3089); type: cell-based, Staphylococcus aureus; settings: multidrug-resistant strain; 1% peptone media, 16 h at 37 °C
[20] = test system: S. aureus 3108(R) (MRSA 3108); type: cell-based, Staphylococcus aureus; settings: multidrug-resistant strain; 1% peptone media, 16 h at 37 °C
[21] = test system: S. aureus 3126(R) (MRSA 3126); type: cell-based, Staphylococcus aureus; settings: multidrug-resistant strain; 1% peptone media, 16 h at 37 °C
[22] = test system: mouse macrophage RAW264.7 cells; settings: 50 μM peptide, MTT, 18 h at 37 °C
[23] = test system: mouse bone marrow-derived dendritic cells; settings: 50 μM peptide, MTT, 18 h at 37 °C
[24] = LPS neutralization (LAL assay); type: biochemical
Method: LPS neutralization by the peptides were measured using LAL-QCL-1000^TM (Lonza, USA) kit using a modified protocol as described previously. The interaction between each peptide and FITC-LPS was monitored according to the change in fluorescence intensity (excitation = 480 nm, emission = 515 nm). Peptides and 0.5 μg/ml FITC-LPS were prepared in 10 mM phosphate buffer (pH 6.0). The binding between rhTLR4 (from R&D systems, Minneapolis, USA) or rhMD2 (R&D systems, Minneapolis, USA) and peptides was determined using the BLItz system (ForteBio, Menlo Park, CA)[53]. A Ni-NTA sensor was used to detect rhTLR4 and rhMD2 binding. Before the binding assay, the biosensor was hydrated for 10 min in PBS. An initial baseline of 15 s, loading for 60 s, baseline for 30 s, association for 60 s and dissociation for 60 s were used for measurement.

[25] = target: T1, rhTLR4 (recombinant human Toll-like receptor 4) (human, UniProt O00206 24-631); test: BLI; BLItz system (ForteBio); rhTLR4 loaded on a Ni-NTA sensor, various amounts of peptide applied; biosensor hydrated 10 min in PBS; baseline 15 s, loading 60 s, baseline 30 s, association 60 s, dissociation 60 s; settings: both partners purified
T1 construct: Toll-like receptor 4, recombinant human (rhTLR4), bought; No catalogue number is printed; source: bought: R&D systems, Minneapolis, USA
T1 sequence (O00206 24-631): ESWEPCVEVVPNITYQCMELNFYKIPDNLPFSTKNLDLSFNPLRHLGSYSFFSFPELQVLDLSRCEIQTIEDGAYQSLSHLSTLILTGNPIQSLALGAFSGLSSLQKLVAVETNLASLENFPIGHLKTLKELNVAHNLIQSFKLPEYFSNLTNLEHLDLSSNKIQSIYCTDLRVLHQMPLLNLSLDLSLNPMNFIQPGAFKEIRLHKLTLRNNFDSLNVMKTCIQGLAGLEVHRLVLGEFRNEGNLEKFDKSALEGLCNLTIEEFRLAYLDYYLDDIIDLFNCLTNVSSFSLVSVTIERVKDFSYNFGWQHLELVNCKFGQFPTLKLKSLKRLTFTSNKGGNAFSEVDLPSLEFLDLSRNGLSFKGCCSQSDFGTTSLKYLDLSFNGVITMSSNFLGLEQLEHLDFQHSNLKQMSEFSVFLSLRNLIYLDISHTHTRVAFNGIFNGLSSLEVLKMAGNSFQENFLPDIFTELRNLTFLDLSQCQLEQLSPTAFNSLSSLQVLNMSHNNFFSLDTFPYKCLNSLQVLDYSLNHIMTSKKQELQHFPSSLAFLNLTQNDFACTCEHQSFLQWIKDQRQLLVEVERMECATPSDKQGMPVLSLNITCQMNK

## CC[C@H](C)[C@H](NC(=O)CNC(=O)[C@H](CCC(N)=O)NC(=O)[C@H](Cc1ccccc1)NC(=O)[C@@H](NC(=O)[C@H](CCCCN)NC(=O)[C@H](CCCCN)NC(=O)[C@H](CC(C)C)NC(=O)[C@H](C)NC(=O)[C@H](CC(N)=O)NC(=O)[C@H](CC(C)C)NC(=O)CN)C(C)C)C(=O)N[C@@H](Cc1c[nH]cn1)C(=O)N[C@@H](CCC(=O)O)C(=O)N[C@@H](C)C(=O)N[C@H](C(=O)N[C@@H](CCCCN)C(=O)N[C@@H](CC(C)C)C(=O)N[C@H](C(=O)N[C@@H](CC(N)=O)C(=O)N[C@@H](CC(N)=O)C(=O)N[C@@H](Cc1c[nH]cn1)C(=O)N[C@H](C(=O)N[C@@H](CCC(N)=O)C(=O)O)C(C)C)[C@@H](C)CC)[C@@H](C)CC [Ps, Pseudin-2] (H-GLNALKKVFQGIHEAIKLINNHVQ-OH)
[1]
  MIC, MDRAB 12035: 1 µM (≈ 2.69 µg/mL)
[2]
  MIC, MDRAB 12036: 2 µM (≈ 5.37 µg/mL)
[3]
  MIC, A. baumannii: 1 µM (≈ 2.69 µg/mL)
[4]
  MIC, B. subtilis: 4 µM (≈ 10.7 µg/mL)
[5]
  MIC, MDREC 1229: 2 µM (≈ 5.37 µg/mL)
[6]
  MIC, MDREC 1238: 1 µM (≈ 2.69 µg/mL)
[7]
  MIC, E. coli: 1 µM (≈ 2.69 µg/mL)
[8]
  Average MIC, Gram-negative: 1.5 µM
[9]
  Average MIC, Gram-positive: 4 µM
[10]
  MIC, MDRPA 2002: 2 µM (≈ 5.37 µg/mL)
[11]
  MIC, MDRPA 2095: 2 µM (≈ 5.37 µg/mL)
[12]
  MIC, P. aeruginosa: 2 µM (≈ 5.37 µg/mL)
[13]
  MIC, MDRST 8003: 4 µM (≈ 10.7 µg/mL)
[14]
  MIC, MDRST 8007: 2 µM (≈ 5.37 µg/mL)
[15]
  MIC, S. typhimurium: 2 µM (≈ 5.37 µg/mL)
[16]
  MIC, S. aureus: 4 µM (≈ 10.7 µg/mL)
[17]
  MIC, S. epidermidis: 4 µM (≈ 10.7 µg/mL)
[18]
  MHC (minimal peptide concentration that produces haemolysis): 25 µM
[18]; 100
  haemolysis at 100 μM: approximately 23%
[19]
  MIC, MRSA 3089: 4 µM (≈ 10.7 µg/mL)
[20]
  MIC, MRSA 3108: 4 µM (≈ 10.7 µg/mL)
[21]
  MIC, MRSA 3126: 4 µM (≈ 10.7 µg/mL)
[22]
  survival of RAW264.7 cells: 56%
[23]
  survival of dendritic cells: 44%

## LL-37
[24]
  LPS neutralization (control peptide): high LPS neutralization

B1: Ps-K18 (peptide)
peptide: GLNALKKVFQGIHEAIKKINNHVQ
notes: source: synthetic peptide (solid-phase, Fmoc; reversed-phase HPLC, purity >95%)
[25]
  Kd: 1500 nM

B2: Pseudin-2 (peptide)
peptide: GLNALKKVFQGIHEAIKLINNHVQ
notes: as for B1
[25]
  Kd: 800 nM

B3: Ps-K14-K18 (peptide)
peptide: GLNALKKVFQGIHKAIKKINNHVQ
notes: as for B1
[25]
  Kd: 6900 nM
